US8431704B2, “Quinoline or isoquinoline substituted P2X7 antagonists” (Janssen Pharmaceutica NV, priority 2008, dated 2013)

Experiments:
hP2X7 = target: T1, hP2X7 (Homo sapiens, UniProt Q99572); test: P2X7 antagonism: ligand-induced Ca2+ flux in 1321N1 astrocytoma cells overexpressing hP2X7; format: cell-based; details: pIC50 = -log(IC50), read-out: hP2RX7pIC50 (mean pIC50 values) (converted)
T1 construct: expressed in transfected cells; host or cells: 1321N1 astrocytoma cells
T1 sequence (Q99572 1-595): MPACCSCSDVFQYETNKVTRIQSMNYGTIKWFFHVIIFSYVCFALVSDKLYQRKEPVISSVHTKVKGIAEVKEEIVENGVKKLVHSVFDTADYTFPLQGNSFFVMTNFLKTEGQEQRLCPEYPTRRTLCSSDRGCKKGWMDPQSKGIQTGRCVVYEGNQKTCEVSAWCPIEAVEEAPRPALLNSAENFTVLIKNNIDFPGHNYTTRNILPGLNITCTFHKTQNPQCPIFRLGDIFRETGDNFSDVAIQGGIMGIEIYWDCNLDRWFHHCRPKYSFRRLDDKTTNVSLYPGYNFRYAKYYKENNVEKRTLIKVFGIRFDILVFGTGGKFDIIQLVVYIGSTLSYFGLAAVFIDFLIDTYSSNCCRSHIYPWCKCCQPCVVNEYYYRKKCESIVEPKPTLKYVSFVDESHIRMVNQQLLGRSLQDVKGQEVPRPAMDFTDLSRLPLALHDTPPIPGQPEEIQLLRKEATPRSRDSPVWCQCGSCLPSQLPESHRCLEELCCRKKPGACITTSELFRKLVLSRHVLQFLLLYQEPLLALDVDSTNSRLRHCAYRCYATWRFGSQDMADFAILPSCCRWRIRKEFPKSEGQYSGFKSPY
Procedure, shortened: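 Intracellular Ca2+ tracked with a quenched Ca2+-sensitive fluorescent dye kit (excitation 488 nm, emission 510-560 nm) in 1321N1 cells, before and after agonist addition in presence of antagonist. Effects expressed as % control and IC50.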

P2X7 = target: T2, P2X7 (Homo sapiens, UniProt Q99572); test: THP-1 YoPro uptake assay (BzATP-stimulated Yo-Pro-1 uptake); format: cell-based; details: Table F-10, THP-1 cells, read-out: mean pIC50 values for P2X7 antagonism (converted)
T2 construct: endogenous in cells; host or cells: THP-1 human monocytic cell line
T2 sequence (Q99572 1-595): T1 sequence (Q99572 1-595)

Row | IC50 (hP2X7) | melting point | IC50 (P2X7) | SMILES
1 | 27.5 nM | 217.7 °C |  | O=C(NCC(c1cnc(C(F)(F)F)nc1)N1CCC(F)(F)CC1)c1cccc2ncccc12 (single isomer, unassigned) [Compound 46]
2 | 25.1 nM | 187.3 °C |  | O=C(NCC(c1ccc(Cl)nc1)N1CCC(F)(F)CC1)c1cccc2ncccc12 (stereo not shown) [Compound 7]
3 | > 10000 nM | 198 °C |  | O=C(NCC(c1ccc(C(F)(F)F)nc1)N1CCNCC1)c1cccc2ncccc12 (stereo not shown) [Compound 8]
4 | > 10000 nM | 155 to 162.2 °C |  | O=C(NCC(c1ccc(C(F)(F)F)nc1)N1CCC(O)(c2ccc(Cl)cc2)CC1)c1cccc2ncccc12 (stereo not shown) [Compound 29]
5 | > 10000 nM | 253.7 to 254.3 °C |  | NC(=O)C1CCN(C(CNC(=O)c2cccc3ncccc23)c2ccc(C(F)(F)F)nc2)CC1 (stereo not shown) [Compound 34]
6 | 21.4 nM | 183.6 °C |  | O=C(NCC(c1cnc(C(F)(F)F)nc1)N1CCCCC1)c1cccc2ncccc12 (stereo not shown) [Compound 35]
7 | 33.9 nM | 125.3 °C |  | O=C(NCC(c1cnc(C(F)(F)F)nc1)N1CCC(F)(F)CC1)c1cccc2nc(NCCO)ccc12 (stereo not shown) [Compound 39]
8 | 224 nM | 206.9 °C |  | O=C(NCC(c1cnc(C(F)(F)F)nc1)N1CCC(F)(F)CC1)c1cccc2nc(O)ccc12 (stereo not shown) [Compound 77]
9 | 25.7 nM | 202.9 °C |  | O=C(NCC(c1cnc(C(F)(F)F)nc1)N1CCC(F)(F)CC1)c1cccc2nc(N3CCNCC3)ccc12 (stereo not shown) [Compound 78]
10 | 47.9 nM | 160 °C |  | Cc1ncc(C(CNC(=O)c2cccc3nc(N4CCOCC4)ccc23)N2CCC(F)(F)CC2)cn1 (stereo not shown) [Compound 96]
11 | 72.4 nM | 234.3 °C |  | O=C(NCC(c1cnc(C(F)(F)F)nc1)N1CCOCC1)c1cccc2nc(N3CCNCC3)ccc12 (stereo not shown) [Compound 102]
12 | 138 nM | 159.7 °C |  | CC(C)(C)OC(=O)N1CCN(c2ccc3c(C(=O)NCC(c4cnc(C(F)(F)F)nc4)N4CCCC(F)(F)C4)cccc3n2)CC1 (stereo not shown) [Compound 106]
13 |  | 236.3 °C |  | CC(C)N1CCN(c2ccc3c(C(=O)NCC(c4cnc(C(F)(F)F)nc4)N4CCC(F)(F)CC4)cccc3n2)CC1 (stereo not shown) [Compound 134]
14 | 91.2 nM | 191.5 °C |  | CC1CN(c2ccc3c(C(=O)NCC(c4cnc(C(F)(F)F)nc4)N4CCC(F)(F)CC4)cccc3n2)CC(C)O1 (stereo not shown) [Compound 140]
15 |  |  | 10.7 nM | CSc1ncc(C(CNC(=O)c2c(Cl)ccc3ncccc23)N2CCC(F)(F)CC2)cn1 (stereo not shown) [Compound 582, 6-chloro-quinoline-5-carboxylic acid [2-(4,4-difluoro-piperidin-1-yl)-2-(2-methylsulfanyl-pyrimidin-5-yl)-ethyl]-amide]
16 |  |  | 112 nM | O=C(NCC(c1cnc(C(F)(F)F)nc1)N1CCC(F)(F)CC1)c1c(Cl)ccc2nc(O)ccc12 (stereo not shown) [Compound 593]
17 |  |  | 3.55 nM | Nc1ccc2c(C(=O)NCC(c3cnc(C(F)(F)F)nc3)N3CCC(F)(F)CC3)c(Cl)ccc2n1 (stereo not shown) [Compound 596]
18 |  |  | 33.1 nM | O=C(NCC(c1cnc(C(F)(F)F)nc1)N1CCOCC1)c1c(F)ccc2ncccc12 (stereo not shown) [Compound 609]
